Key:
in vitro [1] = conditions: human, liver microsomes
Description: Stability in human liver microsomes assessed as parent compound remaining at 3 uM after 10 mins by mass spectrometric method

in vitro [2] = conditions: rat, liver microsomes
Description: Stability in rat liver microsomes assessed as parent compound remaining at 3 uM after 10 mins by mass spectrometric method

in vitro [3] = conditions: mouse, liver microsomes
Description: Stability in mouse liver microsomes assessed as parent compound remaining at 3 uM after 10 mins by mass spectrometric method

remaining at 10 min, 3 µM (in vitro [1]): 79% | remaining at 10 min, 3 µM (in vitro [2]): 78% | remaining at 10 min, 3 µM (in vitro [3]): 81%
Compound: CC(C)c1cc(F)cc(Oc2c(Cl)cc(NC(=O)Cc3cccnc3)cc2Cl)c1

Source: ChEMBL document CHEMBL4680341, “Substituted diaryl ether compounds as retinoic acid-related orphan Receptor-γt (RORγt) agonists” (Bioorg Med Chem Lett, 2021)
